Reference: patent publication US9133178B2, “Alpha-7 nicotinic receptor modulators for the treatment of pain, a psychotic disorder, cognitive impairment or alzheimer'S disease” (Proximagen Limited, priority 2010, dated 2015)
Where a name gives a salt, the structure may show the parent alone. Read-outs that look alike come from different tables or passages of the source.

Target: T1, human α7 nAChR (Homo sapiens, UniProt P36544)
T1 construct: expressed in transfected cells; host or cells: GH4C1 (rat pituitary cell line)
Test: cell-based calcium flux assay (FLIPR) for PAM activity at the α7 nAChR
Method: The PAM activity of the compounds of the invention at the α7 nAChR may be determined using the following cell-based calcium flux assay which uses a Fluorimetric Image Plate Reader (FLIPR) (see Schroeder et al.; J. Biomolecular Screening, 1(2), p 75-80, 1996).
GH4C1 cell line stably transfected with human α7 nAChR was suspended in a 384 well plate and incubated at 30° C. for 48 h in a 5% carbon dioxide atmosphere. The growth media was removed and the cells washed three times with a solution of Hanks' balanced salt solution (HBSS), 20 mM HEPES and 2.5 mM probenecid leaving 20 μl washing solution in each well. A loading solution (200) containing HBSS, probenecid, 1-4 μM Fluo4 AM (a calcium indicator dye) and pluronic acid was added and the plate incubated for 45 min at 37° C. under an atmosphere free from carbon dioxide. The cells were washed three times leaving 30 μl in each well. The plate containing the cells and calcium indicator dye were then transferred to the FLIPR. The assay was initiated by collecting baseline datapoints at 10 second intervals followed by addition of the test compound in buffer solution (0.33% DMSO) and diluted to a final concentration of 10 μM and serial dilution of the wells, 1:2 or 1:3, gave a low concentration of <1 nM. Following a further 5-10 mins 10 μl of 50 μM nicotine was added and data collected for 2 to 3 mins. Nicotine produced a rapid, transient and reproducible calcium flux which could be potentiated with the positive allosteric modulator test compounds.

[1] = Table 2, commercially available compounds, potentiation of nicotine-evoked calcium flux, GH4C1 cells stably transfected with human α7 nAChR, read-out: a7 new sm > PXC50 MEAN
[2] = Table 1, potentiation of nicotine-evoked calcium flux, GH4C1 cells stably transfected with human α7 nAChR, read-out: a7 new sm > PXC50 MEAN

T1 sequence (P36544 23-502): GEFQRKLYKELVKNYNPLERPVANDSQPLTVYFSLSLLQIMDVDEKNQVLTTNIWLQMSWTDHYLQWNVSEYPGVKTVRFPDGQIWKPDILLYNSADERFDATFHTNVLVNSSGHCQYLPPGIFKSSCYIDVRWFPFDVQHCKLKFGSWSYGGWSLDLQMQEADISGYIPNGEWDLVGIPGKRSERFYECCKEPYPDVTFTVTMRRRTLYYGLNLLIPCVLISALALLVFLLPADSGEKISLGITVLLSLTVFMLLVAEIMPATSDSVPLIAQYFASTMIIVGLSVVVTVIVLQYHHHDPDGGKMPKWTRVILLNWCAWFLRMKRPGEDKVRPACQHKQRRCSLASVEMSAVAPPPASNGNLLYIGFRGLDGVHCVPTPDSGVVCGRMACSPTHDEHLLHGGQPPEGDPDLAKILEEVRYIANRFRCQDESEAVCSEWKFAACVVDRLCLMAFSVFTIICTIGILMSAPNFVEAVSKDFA

SMILES | EC50 [1] | EC50 [2] | further results
Cc1cc(-c2cnc(N3CCSCC3)nc2-c2ccc(C)s2)on1 [ADM 14408364] | ≤ 3.16 µM | – | –
Cc1cc(-c2cnc(N3CCSCC3)nc2-c2ccc(C)o2)on1 [AEM 14465590] | ≤ 3.16 µM | – | –
Cc1cc(-c2ccc(N3C[C@@H](C)O[C@@H](C)C3)cc2-c2ccoc2C)ccn1 [Example 13, cis-2,6-Dimethyl-4-[3-(2-methyl-3-furanyl)-4-(2-methyl-4-pyridinyl)phenyl]morpholine] | – | ≤ 1 µM | –
Cc1cnccc1-c1cnc(N2C[C@@H](C)O[C@@H](C)C2)nc1-c1ccoc1C [Example 15, cis-2,6-dimethyl-4-[4-(2-methyl-3-furanyl)-5-(3-methyl-4-pyridinyl)-2-pyrimidinyl]morpholine hydrochloride] | – | ≤ 3.16 µM | –
Cc1ccc(-c2nc(N3CCCCC3)ncc2-c2cc(C)no2)cn1 [ADM 14220371] | ≤ 1 µM | – | –
Cc1noc(C)c1-c1nc(N2CCSCC2)ncc1-c1ccncc1 [AOP 14465529] | ≤ 10 µM | – | –
Cc1occc1-c1nc(N2CCCCCC2)ncc1-c1ccccn1 [Example 7, 1-[4-(2-Methyl-3-furanyl)-5-(2-Pyridinyl)-2-pyrimidinyl]hexahydro-1H-azepine hydrochloride] | – | ≤ 10 µM | –
Cc1occc1-c1nc(N2CCCC(C)C2)ncc1-c1ccccn1 (centres unmarked) [Example 8, 4-(2-Methyl-3-furanyl)-2-(3-methyl-1-piperidinyl)-5-(2-pyridinyl)pyrimidine hydrochloride] | – | ≤ 3.16 µM | –
c1cc(-c2cnc(N3CCSCC3)nc2-c2ccoc2)ccn1 [ADM 14465558] | ≤ 1 µM | – | –
Cc1ccc(-c2nc(N3CCCC3)ncc2-c2cc(C)no2)cn1 [ADM 14220366] | ≤ 10 µM | – | –
CC1CCCN(c2ncc(-c3ccncc3)c(-c3ccco3)n2)C1 (centres unmarked) [LMK 13268083] | ≤ 10 µM | – | –
Cc1cc(-c2cnc(N3C[C@H](C)O[C@@H](C)C3)nc2-c2ccoc2C)ccn1 (relative stereo) [Example 6, trans-2,6-Dimethyl-4-[4-(2-methyl-3-furanyl)-5-(2-methyl-4-pyridinyl)-2-pyrimidinyl]morpholine hydrochloride] | – | ≤ 1 µM | –
Cc1noc(C)c1-c1nc(N2CCCCCC2)ncc1-c1ccncc1 [AOP 14465544] | ≤ 3.16 µM | – | –
Cc1noc(C)c1-c1nc(N2CCCC(C)C2)ncc1-c1ccncc1 (centres unmarked) [AOP 14465526] | ≤ 3.16 µM | – | –
Cc1occc1-c1nc(N2CCCC(C)C2)ncc1-c1cccnc1 (centres unmarked) [Example 2, 4-(2-Methyl-3-furanyl)-2-(3-methyl-1-piperidinyl)-5-(3-pyridinyl)pyrimidine hydrochloride] | – | ≤ 10 µM | –
Cc1occc1-c1nc(N2CCN(C(=O)c3ccco3)CC2)ncc1-c1ccccn1 [ADM 13270126] | ≤ 10 µM | – | –
Cc1cc(-c2ncc(N3C[C@@H](C)O[C@@H](C)C3)nc2-c2ccoc2C)ccn1 [Example 10, cis-2,6-Dimethyl-4-[6-(2-methyl-3-furanyl)-5-(2-methyl-4-pyridinyl)-2-pyrazinyl]morpholine hydrochloride] | – | ≤ 3.16 µM | –
Cc1cc(-c2cnc(N3C[C@@H](C)O[C@@H](C)C3)nc2-c2cc(F)ccc2C#N)ccn1 [Example 18, cis-2-[2-(2,6-Dimethyl-4-morpholinyl)-5-(2-methyl-4-pyridinyl)-4-pyrimidinyl]-4-fluorobenzonitrile hydrochloride] | – | ≤ 10 µM | –
Cc1cc(-c2cnc(N3C[C@@H](C)O[C@@H](C)C3)nc2-c2ccoc2C)ccn1 [Example 5, cis-2,6-Dimethyl-4-[4-(2-methyl-3-furanyl)-5-(2-methyl-4-pyridinyl)-2-pyrimidinyl]morpholine hydrochloride] | – | ≤ 1 µM | –
COc1cc(-c2cnc(N3CCCCC3)nc2-c2ccco2)nc(OC)n1 [ATL 14631888] | ≤ 10 µM | – | –
COc1cc(-c2cnc(N3CCCC3)nc2-c2ccco2)nc(OC)n1 [ATL 14631887] | ≤ 10 µM | – | –
Cc1cc(-c2cnc(N3C[C@@H](C)O[C@@H](C)C3)nc2CC(C)C)ccn1 [Example 9, cis-2,6-Dimethyl-4-[4-(2-methylpropyl)-5-(2-methyl-4-pyridinyl)-2-pyrimidinyl]morpholine hydrochloride] | – | ≤ 1 µM | –

SMILES | EC50 [1] | EC50 [2] | further results
Cc1cc(-c2cnc(N3CCCCC3)nc2-c2ccoc2C)ccn1 [Example 4, 4-(2-Methyl-3-furanyl)-5-(2-methyl-4-pyridinyl)-2-(1-piperidinyl)pyrimidine hydrochloride] | – | ≤ 1 µM | –
Cc1cc(-c2cnc(N3C[C@@H](C)O[C@@H](C)C3)nc2-c2cnc(F)cc2C)ccn1 [Example 17, cis-4-[4-(6-Fluoro-4-methyl-3-pyridinyl)-5-(2-methyl-4-pyridinyl)-2-pyrimidinyl]-2,6-dimethylmorpholine hydrochloride] | – | ≤ 3.16 µM | –
Cc1cc(-c2cnc(N3C[C@@H](C)O[C@@H](C)C3)nc2-c2cccnc2C(F)(F)F)ccn1 [Example 16, cis-2,6-Dimethyl-4-{5-(2-methyl-4-pyridinyl)-4-[2-(trifluoromethyl)-3-pyridinyl]-2-pyrimidinyl}morpholine hydrochloride] | – | ≤ 10 µM | –
Cc1cc(-c2cnc(N3CCCC(C)C3)nc2-c2ccoc2C)ccn1 (centres unmarked) [Example 3, 4-(2-Methyl-3-furanyl)-2-(3-methyl-1-piperidinyl)-5-(2-methyl-4-pyridinyl)pyrimidine hydrochloride] | – | ≤ 1 µM | –
Cc1cc(-c2ccc(N3C[C@@H](C)O[C@@H](C)C3)nc2-c2ccoc2C)ccn1 [Example 12, 6-(cis-2,6-dimethyl-4-morpholinyl)-2′-methyl-2-(2-methyl-3-furanyl)-3,4′-bipyridine hydrochloride] | – | ≤ 3.16 µM | –
Cc1cc(-c2cnc(N3C[C@@H](C)O[C@@H](C)C3)nc2-c2ccccc2C#N)ccn1 | – | – | EC50 (further batch (as the HCl salt), read-out: pEC50 (converted)): > 10 µM; maximum potentiation of the response area relative to nicotine control (further batch (as the HCl salt)): approximately 1200%; EC50 (potentiation of nicotine-evoked calcium flux, read-out: pEC50 (converted)): ~2.51 µM; maximum potentiation of the response area relative to nicotine control: approximately 1200%
Cc1occc1-c1nc(N2CCCC2)ncc1-c1ccncc1 [ADM 13269675] | ≤ 3.16 µM | – | –
c1cc(-c2cnc(N3CCCCC3)nc2-c2ccoc2)ccn1 [ADM 14465561] | ≤ 10 µM | – | –
Cc1ccc(-c2nc(N3CCCC(C)C3)ncc2-c2ccncc2)cn1 (centres unmarked) [AOP 13274016] | ≤ 1 µM | – | –
Cc1occc1-c1nc(N2CCCCC2)ncc1-c1ccncc1 [ADM 13269676] | ≤ 1 µM | – | –
Cc1occc1-c1nc(N2CCCC(C)C2)ncc1-c1ccncc1 (centres unmarked) [Example 1, 4-(2-Methyl-3-furanyl)-2-(3-methyl-1-piperidinyl)-5-(4-pyridinyl)pyrimidine hydrochloride] | – | ≤ 1 µM | –
c1ccc(-c2nnc(N3CCCC3)nc2-c2ccccc2)cc1 [AO-476/43380313] | ≤ 1 µM | – | –
Cc1occc1-c1nc(N2CCCC(C)C2)ncc1-c1ccncc1 (centres unmarked) [ADM 13269678] | ≤ 1 µM | – | –
Cc1ccc(-c2nc(N3CCCCC3)ncc2-c2ccncc2)cn1 [AOP 13274014] | ≤ 3.16 µM | – | –
Cc1cc(-c2cnc(N3C[C@@H](C)O[C@@H](C)C3)cc2-c2ccoc2C)ccn1 [Example 11, 6-(cis-2,6-dimethyl-4-morpholinyl)-2′-methyl-4-(2-methyl-3-furanyl)-3,4′-bipyridine hydrochloride] | – | ≤ 3.16 µM | –
Cc1occc1-c1nc(N2CC(C)OC(C)C2)ncc1-c1ccncc1 (centres unmarked) [ADM 13269721] | ≤ 1 µM | – | –
Cc1occc1-c1nc(N2CCSCC2)ncc1-c1ccncc1 [ADM 13269686] | ≤ 3.16 µM | – | –
Cc1ccc(-c2nc(N3CCCC(C)C3)ncc2-c2cc(C)no2)cn1 (centres unmarked) [ADM 14220368] | ≤ 1 µM | – | –
Cc1occc1-c1nc(N2CCCCCC2)ncc1-c1ccncc1 [ATL 13269690 or ADM 13269690] | ≤ 3.16 µM | – | –
Cc1cc(-c2cnc(N3C[C@@H](C)O[C@@H](C)C3)nc2-c2ccccc2C)ccn1 [Example 14, cis-2,6-Dimethyl-4-[4-(2-methylphenyl)-5-(2-methyl-4-pyridinyl)-2-pyrimidinyl]morpholine] | – | ≤ 3.16 µM | –
c1coc(-c2cnc(N3CCSCC3)nc2-c2ccco2)c1 [LMK 13280444] | ≤ 3.16 µM | – | –
Cc1cc(-c2cnc(N3C[C@@H](C)O[C@@H](C)C3)nc2-c2cccc(C(F)(F)F)c2C#N)ccn1 [Example 19, cis-2-[2-(2,6-dimethyl-4-morpholinyl)-5-(2-methyl-4-pyridinyl)-4-pyrimidinyl]-6-(trifluoromethyl)benzonitrile hydrochloride] | – | ≤ 1 µM | –
